Results on one compound are retold here after patent EP0960190B1, “IMI[…] RESISTANT SUGAR BEET PLANTS” (Michigan State University, priority 1996, dated 1998).

The test system of one test is ALS enzyme from Sir-13. The experiment in a line: ALS enzyme activity assay in leaf extracts (acetoin colorimetry). In kind it is biochemical, Beta vulgaris L. Particulars: Sir-13 single mutant ALS enzyme in vitro.
Another test concerns Rel-1. The experiment in a line: Shoot culture herbicide resistance (shoot injury and fresh weight on M20 media). Particulars: Beta vulgaris, 504 h; Rel-1 sensitive control; herbicide concentration causing 50% injury to the shoot culture, 3 weeks; read-out: I50. The test is classed as cell-based, Beta vulgaris L. As to the method:
(§1) In step 7, shoot cultures were assessed for herbicide resistance by placing three small, consistently sized shoot cuttings on each plate of M20 media supplemented with logarithmically increasing concentrations of imidazolinone herbicide, sulfonylurea or triazolopyrimidine sulfonanilide ranging from 1 nM to 0.1 mM. 93R30 culture responses were compared to that of shoot cultures of a sensitive control (Rel-1) and a chlorsulfuron resistant, imidazolinone sensitive control (EL-49). Shoot cultures were maintained at 20 µE/m^2 s light intensity at 25°C for 3 weeks. Shoot culture was determined by rating shoot injury and fresh weight 3 weeks after transfer to selective media. Magnitude of herbicide resistance was determined by the ratio of resistant to sensitive I50 values (the herbicide concentration causing 50 percent injury).

The subject of another test is EL-49. The test is described as above. In kind it is cell-based, Beta vulgaris L. As to the method:
as §1

In another test the test system is 93R30B. Described as above. In kind it is cell-based, Beta vulgaris L. As to the method: as §1
For the next test, the system named is ALS enzyme from Sur. Briefly: ALS enzyme activity assay in leaf extracts (acetoin colorimetry). In kind it is biochemical, Beta vulgaris L. Particulars: Sur single mutant ALS enzyme in vitro. As to the method: Standard procedures were utilized to partially purify ALS from rapidly expanding leaves of greenhouse-grown sugar beet plants (Hart, et al. Weed Science 40:378-383 (1992)). Extracts from heterozygous 93R30B F1 plants and Rel-1 S1 seed were assayed for ALS activity in the presence of logarithmically increasing concentrations of imazethapyr. ALS activity was determined from leaf extracts of REL-1 and 93R30B sugarbeet lines. Plants were grown in the greenhouse as described above to the four to six leaf stage. ALS activity from fresh extracts was determined in the presence of imazethapyr and chlorsulfuron at logarithmically increasing concentrations. […]
(§2) ALS activity is measured by adding 0.2 ml of enzyme preparation (diluted 3:1 with resuspension buffer) to 1.3 ml of reaction buffer (25 mM K2HPO4, pH 7.0, 0.625 mM MgCl2, 25 mM sodium pyruvate, 0.625 mM thiamine pyrophosphate, 1.25 µM flavin adenine dinucleotide) and incubated at 35°C for 1 hour. […]
Purchased acetoin was used as a standard for the colorimetric reaction. Acetoin concentrations were determined by measuring the absorption of the reaction solution at 530 nm. […] Protein concentrations of the extracts was determined by the method of Bradford (Anal. Biochem. 72:248-254 (1976)) using bovine serum albumin for the standard curve.

For a further test, the system named is ALS extracts from 93R30B. The description is as above. The test is classed as biochemical, Beta vulgaris L. Here is the method: Standard procedures were utilized to partially purify ALS from rapidly expanding leaves of greenhouse-grown sugar beet plants (Hart, et al. Weed Science 40:378-383 (1992)). Extracts from heterozygous 93R30B F1 plants and Rel-1 S1 seed were assayed for ALS activity in the presence of logarithmically increasing concentrations of imazethapyr. ALS activity was determined from leaf extracts of REL-1 and 93R30B sugarbeet lines. Plants were grown in the greenhouse as described above to the four to six leaf stage. ALS activity from fresh extracts was determined in the presence of imazethapyr and chlorsulfuron at logarithmically increasing concentrations. The methods and procedures used were modified from those outlined by Ray (Plant Physiol. 75:827-831 (1984)) and Shaner, et al. (Plant Physiol. 76:545-546 (1984)). Ten g of sugarbeet leaves were homogenized in 40 ml cold homogenization buffer (0.1 M K2HPO4, pH 7.5, 1 mM sodium pyruvate, 0.5 mM MgCl2, 0.5 mM thiamine pyrophosphate, 10 µM of flavin adenine dinucleotide, 10% by vol glycerol) plus 2.5 g polyvinylpolypyrolidone. The homogenate was filtered through eight layers of cheesecloth and centrifuged at 27,000 g for 20 minutes. The supernatant was removed and brought to 50% saturation with (NH4)2SO4. […]
as §2
Purchased acetoin was used as a standard for the colorimetric reaction. Acetoin concentrations were determined by measuring the absorption of the reaction solution at 530 nm. […] Protein concentrations of the extracts was determined by the method of Bradford (Anal. Biochem. 72:248-254 (1976)) using bovine serum albumin for the standard curve. […]

Molecules are shown by their SMILES. Some results are limits rather than exact numbers.

As to `CCc1cnc(C2=NC(C)(C(C)C)C(=O)N2)c(C(=O)O)c1` (centres unmarked) [Imazethapyr], the “resistance of the ALS enzyme” value with ALS enzyme from Sir-13 is 40 X; in the test with ALS enzyme from Sur it was 1 X; with ALS extracts from 93R30B (SB double mutant ALS enzyme in vitro), more than 1000 X. Also, the IC50 in the test on Rel-1 amounted to 18 nM; in the test on EL-49 (Beta vulgaris, 504 h, EL-49, herbicide concentration causing 50% injury to the shoot culture, 3 weeks, read-out: I50), 53 nM; in the test with 93R30B (Beta vulgaris, 504 h, 93R30B, herbicide concentration causing 50% injury to the shoot culture, 3 weeks, read-out: I50), 64000 nM. Further, the R/S with EL-49 (EL-49, ratio of resistant to sensitive control (Rel-1) I50 values, shoot culture, 30240 min) came out at 3X; in the test with 93R30B (93R30B, ratio of resistant to sensitive control (Rel-1) I50 values, shoot culture, 30240 min), 3600X. For the same compound, the level of resistance with EL-49 (EL-49 in shoot culture, 30240 min) was 3 fold; in the test with 93R30B (93R30B in shoot culture, 30240 min) it was 3600 fold. The “level of resistance at the enzyme level” value in the test on ALS extracts from 93R30B (ratio of I50's for the resistant (93R30B, heterozygous F1) and sensitive (Rel-1) lines) was 1750 fold.
